Tested on: cancer cell lines
Assay: Multiplexed cytotoxicity assay: cell proliferation (relative cell count IC50, GI50)
Format: cell-based
Conditions: Homo sapiens
Experimental: (§1) Cells are grown in RPMI1640, 10% FBS, 2 mM L-alanyl-L-Glutamine, 1 mM Na pyruvate or a special medium in a humidified atmosphere of 5% CO2 at 37° C. Cells are seeded into 384-well plates and incubated in a humidified atmosphere of 5% CO2 at 37° C. Compounds are added 24 h post cell seeding. At the same time, a time zero untreated cell plate is generated. After a 72 hour incubation period, cells are fixed and stained with fluorescently labeled antibodies and nuclear dye to allow visualization of nuclei, apoptotic cells and mitotic cells. Apoptotic cells are detected using an anti-active caspase-3 antibody. Mitotic cells are detected using an anti phospho-histone-3 antibody. Compounds are serially diluted 3.16-fold and assayed over 10 concentrations in a final assay concentration of 0.1% DMSO from the highest test concentration of 10 μM. Automated fluorescence microscopy was carried out using a Molecular Devices ImageXpress Micro XL high-content imager, and images are collected with a 4× objective.
Sixteen-bit TIFF images are acquired and analyzed with MetaXpress 5.1.0.41 software. Cell proliferation is measured by the signal intensity of the incorporated nuclear dye. The cell proliferation assay output is referred to as the relative cell count. To determine the cell proliferation end point, the cell proliferation data output is transformed to percentage of control (POC) using the following formula: POC=relative cell count(compound wells)/relative cell count(vehicle wells)×100
GI50 is the concentration needed to reduce the observed growth by half. This is the concentration that inhibits the growth to the level midway between growth in untreated cells and the number of cells seeded in the well (Time zero value). The IC50 values are calculated using nonlinear regression to fit data to a sigmoidal 4 point, 4 parameter One-Site dose response model, where: y(fit)=A+[(B−A)/(1+((C/x)^D))].
as §1, with “In another experiment, cells were grown” for “Cells are grown”, “Cells were” for “Cells are”, “Compounds were” for “Compounds are”, “plate was” for “plate is”, “cells were” for “cells are”, “images were” for “images are”
Sixteen-bit TIFF images were acquired and analyzed with MetaXpress 5.1.0.41 software. Cell proliferation was measured by the signal intensity of the incorporated nuclear dye. The cell proliferation assay output was referred to as the relative cell count. To determine the cell proliferation end point, the cell proliferation data output was transformed to percentage of control (POC) using the following formula: POC=relative cell count(compound wells)/relative cell count(vehicle wells)×100
GI50 refers to the concentration needed to reduce the observed growth by half. This corresponds to the concentration that inhibits the growth to the level midway between growth in untreated cells and the number of cells seeded in the well (Time zero value). The IC50 values were calculated using nonlinear regression to fit data to a sigmoidal 4 point, 4 parameter One-Site dose response model, where: y(fit)=A+[(B−A)/(1+((C/x)^D))].

[1] = JIYOYE, JIYOYE (Hematopoietic and lymphoid, Lymphoma)
[2] = JeKo-1, JEKO1 (Hematopoietic and lymphoid, Lymphoma)
[3] = Jurkat, JURKAT (Hematopoietic and lymphoid, Leukemia)
[4] = K562, K562 (Hematopoietic and lymphoid, Leukemia)
[5] = KATO III, 72 h, KATOIII, Stomach
[6] = KU812, KU812 (Hematopoietic and lymphoid, Leukemia)
[7] = L-428, L428 (Hematopoietic and lymphoid, Lymphoma)
[8] = MC116, MC116 (Hematopoietic and lymphoid, Lymphoma)
[9] = MC-IXC, 72 h, MCIXC, CNS, Neuroblastoma
[10] = ME-180, 72 h, ME180, Female GU, Ovary, 72 h
[11] = MEG-01, MEG01 (Hematopoietic and lymphoid, Leukemia)
[12] = MES-SA, 72 h, MESSA, Soft Tissue, Sarcoma
[13] = MG-63, 72 h, MG63, Soft Tissue, Osteosarcoma, 72 h
[14] = MHH-PREB-1, MHHPREB1 (Hematopoietic and lymphoid, Leukemia)
[15] = MIA PaCa-2, 72 h, MIAPACA2, Pancreas, 72 h
[16] = MOLT-3, MOLT3 (Hematopoietic and lymphoid, Leukemia)
[17] = MOLT-16, MOLT16 (Hematopoietic and lymphoid, Leukemia)
[18] = MV4-11, MV411 (Hematopoietic and lymphoid, Leukemia)
[19] = Malme-3M, MALME3M (Skin, Melanoma)
[20] = NALM-6, NALM6 (Hematopoietic and lymphoid, Leukemia)
[21] = NCI-H69, 72 h, NCIH69, Lung, SCLC, 72 h
[22] = NCI-H292, 72 h, NCIH292, Lung, NSCLC, 72 h
[23] = NCI-H295R, NCIH295R (Endocrine, Adrenal gland)
[24] = NCI-H441, 72 h, NCIH441, Lung, NSCLC, 72 h
[25] = NCI-H446, 72 h, NCIH446, Lung, SCLC, 72 h
[26] = NCI-H460, 72 h, NCIH460, Lung, NSCLC, 72 h
[27] = NCI-H510A, 72 h, NCIH510A, Lung, SCLC
[28] = NCI-H520, 72 h, NCIH520, Lung, NSCLC, 72 h
[29] = NCI-H596, 72 h, NCIH596, Lung, NSCLC, 72 h
[30] = NCI-H661, 72 h, NCIH661, Lung, NSCLC, 72 h
[31] = NTERA-2-cl-D1, 72 h, NTERA2CLD1, Testis, 72 h
[32] = OE19, 72 h, OE19, Head and Neck, Esophageal, 72 h
[33] = OE33, 72 h, OE33, Head and Neck, Esophageal, 72 h
[34] = OVCAR-3, 72 h, OVCAR3, Female GU, Ovary, 72 h
[35] = PANC-1, 72 h, PANC1, Pancreas, 72 h
[36] = PSN1, 72 h, PSN1, Pancreas, 72 h
[37] = RL95-2, 72 h, RL952, Female GU, Uterus, 72 h
[38] = RPMI-6666, RPMI6666 (Hematopoietic and lymphoid, Lymphoma)
[39] = RPMI-7951, RPMI7951 (Skin, Melanoma)
[40] = RPMI-8226, 72 h, RPMI8226, Hematopoietic and lymphoid, Myeloma, 72 h
[41] = RS4-11, RS411 (Hematopoietic and lymphoid, Leukemia)
[42] = Raji, RAJI (Hematopoietic and lymphoid, Lymphoma)
[43] = Rec1, REC1 (Hematopoietic and lymphoid, Lymphoma)
[44] = SAOS-2, 72 h, SAOS2, Soft Tissue, Osteosarcoma, 72 h
[45] = SHP77, 72 h, SHP77, Lung, SCLC, 72 h
[46] = SJRH30, 72 h, SJRH30, Soft Tissue, Sarcoma, 72 h
[47] = SJSA-1, 72 h, SJSA1, Soft Tissue, Osteosarcoma, 72 h
[48] = SK-LMS-1, 72 h, SKLMS1, Soft Tissue, Sarcoma, 72 h
[49] = SK-MEL3, 72 h, SKMEL3, Skin, Melanoma, 72 h
[50] = SK-MEL-1, SKMEL1 (Skin, Melanoma)
[51] = SK-MEL-28, SKMEL28 (Skin, Melanoma)
[52] = SK-MES-1, 72 h, SKMES1, Lung, NSCLC, 72 h

C[C@]1(C(N)=O)CC[C@@H](n2c(Nc3c(Cl)cc(Cl)cc3Cl)nc3cnc(N[C@@H]4CCOC[C@H]4F)nc32)CC1 [Compound 1, cis-4-[2-{[(3S,4R)-3-fluorooxan-4-yl]amino}-8-(2,4,6-trichloroanilino)-9H-purin-9-yl]-1-methylcyclohexane-1-carboxamide]
GI50 [1]: 81.4 nM
IC50 [1]: 210 nM
GI50 [2]: 461 nM
IC50 [2]: 830 nM
GI50 [3]: 3340 nM
IC50 [3]: 3730 nM
GI50 [4]: > 10000 nM
IC50 [4]: > 10000 nM
GI50 [5]: 61.2 nM
IC50 [5]: 78.7 nM
GI50 [6]: 3 nM
IC50 [6]: 15.9 nM
GI50 [7]: 1630 nM
IC50 [7]: 3460 nM
GI50 (LNCaP, 72 h, Prostate): 2430 nM
IC50 (LNCaP, 72 h, Prostate): 5070 nM
GI50 (LS174T, LS174T (Colon)): 194 nM
IC50 (LS174T, LS174T (Colon)): 259 nM
GI50 (LS-123, LS123 (Colon)): 61 nM
IC50 (LS-123, LS123 (Colon)): 188 nM
GI50 (LS-411N, LS411N (Colon)): 35.8 nM
IC50 (LS-411N, LS411N (Colon)): 53 nM
GI50 (LS-513, LS513 (Colon)): 35.3 nM
IC50 (LS-513, LS513 (Colon)): 38.6 nM
GI50 (LS-1034, LS1034 (Colon)): 224 nM
IC50 (LS-1034, LS1034 (Colon)): 676 nM
GI50 (M059J, M059J (CNS, Glioma)): 612 nM
IC50 (M059J, M059J (CNS, Glioma)): 3310 nM
GI50 [8]: 6020 nM
IC50 [8]: 6490 nM
GI50 [9]: 2040 nM
IC50 [9]: 2330 nM
GI50 (MCF7, MCF7 (Breast)): 636 nM
IC50 (MCF7, MCF7 (Breast)): 3470 nM
GI50 (MDA-MB-231, MDAMB231 (Breast)): 33.9 nM
IC50 (MDA-MB-231, MDAMB231 (Breast)): 62.4 nM
GI50 (MDA-MB-415, MDAMB415 (Breast)): 729 nM
IC50 (MDA-MB-415, MDAMB415 (Breast)): > 10000 nM
GI50 (MDA-MB-436, MDAMB436 (Breast)): 262 nM
IC50 (MDA-MB-436, MDAMB436 (Breast)): > 10000 nM
GI50 (MDA-MB-453, MDAMB453 (Breast)): 656 nM
IC50 (MDA-MB-453, MDAMB453 (Breast)): 2820 nM
GI50 (MDA-MB-468, MDAMB468 (Breast)): 36.3 nM
IC50 (MDA-MB-468, MDAMB468 (Breast)): 72.1 nM
GI50 [10]: > 10000 nM
IC50 [10]: > 10000 nM
GI50 [11]: 81.8 nM
IC50 [11]: 221 nM
GI50 [12]: 810 nM
IC50 [12]: 1100 nM
GI50 [13]: 108 nM
IC50 [13]: 115 nM
GI50 [14]: 6690 nM
IC50 [14]: 6970 nM
GI50 [15]: 35.7 nM
IC50 [15]: 39.6 nM
GI50 [16]: 946 nM
IC50 [16]: 3030 nM
GI50 [17]: 2880 nM
IC50 [17]: 3350 nM
GI50 [18]: 107 nM
IC50 [18]: 184 nM
GI50 [19]: 3.4 nM
IC50 [19]: 12 nM
GI50 (MeWo, MEWO (Skin, Melanoma)): 102 nM
IC50 (MeWo, MEWO (Skin, Melanoma)): 159 nM
GI50 [20]: > 10000 nM
IC50 [20]: > 10000 nM
GI50 [21]: 5000 nM
IC50 [21]: > 10000 nM
GI50 [22]: 278 nM
IC50 [22]: 686 nM
GI50 [23]: > 10000 nM
IC50 [23]: > 10000 nM
GI50 [24]: 271 nM
IC50 [24]: 1250 nM
GI50 [25]: 327 nM
IC50 [25]: > 10000 nM
GI50 [26]: > 10000 nM
IC50 [26]: > 10000 nM
GI50 (NCI-H508, NCIH508 (Colon)): 28.8 nM
IC50 (NCI-H508, NCIH508 (Colon)): 48.1 nM
GI50 [27]: 3700 nM
IC50 [27]: 6610 nM
GI50 [28]: 991 nM
IC50 [28]: 2130 nM
GI50 [29]: 2750 nM
IC50 [29]: > 10000 nM
GI50 [30]: 1440 nM
IC50 [30]: 2640 nM
GI50 (NCI-H747, NCIH747 (Colon)): 12 nM
IC50 (NCI-H747, NCIH747 (Colon)): 44.5 nM
GI50 [31]: 44 nM
IC50 [31]: 50.7 nM
GI50 [32]: 340 nM
IC50 [32]: > 10000 nM
GI50 [33]: 63 nM
IC50 [33]: 96.9 nM
GI50 [34]: > 10000 nM
IC50 [34]: > 10000 nM
GI50 [35]: 41.6 nM
IC50 [35]: 80 nM
GI50 (PFSK-1, PFSK1 (CNS, Glioma)): 23.4 nM
IC50 (PFSK-1, PFSK1 (CNS, Glioma)): > 10000 nM
GI50 [36]: 8.3 nM
IC50 [36]: 9.2 nM
GI50 (RKOE6, RKOE6 (Colon)): 75.3 nM
IC50 (RKOE6, RKOE6 (Colon)): 107 nM
GI50 [37]: 9 nM
IC50 [37]: 59.9 nM
GI50 [38]: 80.1 nM
IC50 [38]: 370 nM
GI50 [39]: 71.6 nM
IC50 [39]: 94.5 nM
GI50 [40]: 1090 nM
IC50 [40]: 2480 nM
GI50 [41]: 359 nM
IC50 [41]: 2960 nM
GI50 [42]: 179 nM
IC50 [42]: > 10000 nM
GI50 [43]: 5.3 nM
IC50 [43]: 193 nM
GI50 [44]: 3570 nM
IC50 [44]: 6880 nM
GI50 (SCC-4, SCC4 (Head and Neck)): 51.2 nM
IC50 (SCC-4, SCC4 (Head and Neck)): 108 nM
GI50 (SCC-9, SCC9 (Head and Neck)): 117 nM
IC50 (SCC-9, SCC9 (Head and Neck)): 280 nM
GI50 (SCC-25, SCC25 (Head and Neck)): 43.9 nM
IC50 (SCC-25, SCC25 (Head and Neck)): 51 nM
GI50 (SCaBER, SCABER (Bladder)): 66.5 nM
IC50 (SCaBER, SCABER (Bladder)): 77.2 nM
GI50 [45]: 4790 nM
IC50 [45]: 5820 nM
GI50 [46]: 219 nM
IC50 [46]: 1470 nM
GI50 [47]: 1160 nM
IC50 [47]: 2460 nM
GI50 (SK-BR-3, SKBR3 (Breast)): 6810 nM
IC50 (SK-BR-3, SKBR3 (Breast)): 8450 nM
GI50 [48]: 146 nM
IC50 [48]: 166 nM
GI50 [49]: 28.4 nM
IC50 [49]: 62.5 nM
GI50 [50]: 1 nM
IC50 [50]: 29.1 nM
GI50 [51]: 27.9 nM
IC50 [51]: 57.1 nM
GI50 [52]: 103 nM
IC50 [52]: 122 nM

Source: US10513519B2, “Solid forms of (1S,4S)-4-(2-(((3S,4R)-3-fluorotetrahydro-2H-pyran-4-yl)amino)-8-((2,4,6-trichlorophenyl)amino)-9H-purin-9-yl)-1-methylcyclohexane-1-carboxamide and methods of their use” (Signal Pharmaceuticals, LLC, priority 2016, dated 2019)
